We go through one compound from patent US6159733A, “Method for photoinactivating malignant cells” (priority 1996, dated 2000).

Data set [1] concerns cell lines (ABE-8.1/2, BC3A, L1210, P815, WEHI-3). Nature of the data set: Survival of cell lines after incubation with Pc 4. The data set is classed as cell-based, murine. The settings on record: Mus musculus, light or radiation study, read-out: surviving fractions of the cell lines after incubation. As for the experimental part: Cell lines and culture conditions. WEHI-3 (murine myelocytic leukemia), L1210 (murine lymphocytic leukemia) and P815 (murine mastocytoma) cells were grown in RPMI 1640 (GibcoBRL, Grand Island, N.Y.) supplemented with 10% FBS. BC3A (murine leukemia) cells were grown in RPMI 1640 supplemented with 10 μM β-mercaptoethanol and 10% FBS; ABE-8.1/2 (murine pre-B lymphoma) cells were grown in DMEM (GibcoBRL)--10 μM β-mercaptoethanol--10% FBS. All cell lines were obtained from the American Type Culture Collection (Rockville, Md.) and were cultured at 37° C. in a humidified 5% CO2 -incubator. Prior to incubation with Pc 4, the cell lines were centrifuged and resuspended in phosphate buffered saline (PBS)--10% FBS, pH 7.4.
Photosensitization. […]
Cell line samples were plated (in triplicate) in a semi-solid medium which consisted of DMEM--20% vol/vol serum (2/3 horse serum, 1/3 FBS)--3 mM glutamine--60 μM β-mercaptoethanol--0.3% wt/vol agar. The samples were incubated at 37° C. in a humidified 5% CO2 -incubator, and colonies consisting of more than 50 cells were counted after nine days.
Statistics. […] Data are expressed as mean values±standard error of the mean (SEM). […] The significance of the differences between experimental values was assessed by means of the Student's t-test.

Data set [2] concerns pluripotent stem cells (c-kit^+,Sca-1^+). Nature of the data set: Uptake of Pc 4, flow cytometry. In kind it is cell-based, murine. The settings on record: for Pc 4 content / Pc 4 content per cell volume: 15 nM. The procedure:
(§1) In mixing experiments, aliquots of Ly-5.2 BM and cell lines samples were mixed at different ratios. The combined cell concentration of each sample was 1.5×10^7 cells/mL. […] The cell lines were stained with anti-Ly-5.1^FITC. This treatment allowed clear resolution of the relatively small ABE-8.1/2 and BC3A cells from the bone marrow granulocytes. Immediately prior to the analyses, propidium iodide (PI, 0.5 μg/mL) was added to the samples to allow exclusion of dead cells (PI^+) from the analyses. The samples were analyzed in a FACStar^PLUS (BD) that was equipped with an argon ion laser tuned to 488 nm (200 mW) and a dye laser tuned to 610 nm (300 mW). FITC, PE, PI and Pc 4 fluorescence emissions were collected through 530/30, 575/42, 660/10, 670/10 nm band pass filters, respectively.
(§2) Cell size. Microscopic measurements of at least 20 cells were performed using a calibrated micrometer. To determine the cell size of the BM progenitor subsets, the c-kit^+,Sca-1^- and c-kit^+,Sca-1^+ fractions were sorted. The sorted cells were centrifuged and the pellets were resuspended in a 20 μl of HBBS. Samples were deposited onto microscope slides and covered with a cover slip. Cell diameters of 7.7±0.2 (c-kit^+,Sca-1^+), 8.4±0.3 (c-kit^+,Sca-1^-), 10.9±0.2 (BC3A), 11.1±0.2 (ABE-8.1/2), 13.0±0.3 (L1210), 14.2±0.3 (P815), 15.0±0.4 μm (WEHI-3) were obtained.

Data set [3] concerns progenitor cells (c-kit^+,Sca-1^-). Nature of the data set: Uptake of Pc 4, flow cytometry. In kind it is cell-based, murine. The procedure: as §1, §2
For orientation: A flow cytometer gives signals particle by particle.

For data set [4], the system named is multidrug resistance (mdr) pump. Put plainly: Uptake of Pc 4 by BM in presence of verapamil. As for the experimental part:
Uptake of Pc 4. Following a two hour incubation at 37° C. with 15 nM Pc 4, cell line and BM samples were analyzed for Pc 4 uptake by flow cytometry. BM samples were first incubated with anti-c-kit^PE (Pharmingen) and anti-Sca-1^FITC (Pharmingen), to allow analysis of the Pc 4 uptake in the committed progenitor fraction (c-kit^+,Sca-1^-) and the pluripotent stem cell fraction (c-kit^+,Sca-1^+) (Li, C. L. and G. R. Johnson Blood 85:1472 (1995)). Following a 20 minute incubation on ice, and two subsequent washes, the samples were incubated with 15 nM Pc 4. The relative Pc 4 uptake was calculated by subtracting the mean fluorescence signals of the untreated control samples from the mean Pc 4 fluorescence signals.

The test system of the next data set is viruses. The settings on record: blood products; cited from earlier work.
The mark [5] stands for this setting: 1.5×10^6 cells/ml during incubation.
Where [6] appears, read: 1.5×10^7 cells/ml during incubation.
Setting [7] is: 15 nM, 1.5×10^6 cells/ml during incubation.
The mark [8] stands for this setting: 15 nM, 1.5×10^7 cells/ml during incubation.

For the compound `CN(C)CCC[Si](C)(C)O[Si]1(O)n2c3c4ccccc4c2N=C2N=C(N=c4c5ccccc5c(n41)=NC1=NC(=N3)c3ccccc31)c1ccccc12` (stereo not drawn) [Pc 4, hydroxysiloxy-dimethylpropyl-N-dimethyl silicon phthalocyanine], in data set [1], the viability at 0.015 µM lay in the range of 73 to 100%. Besides, the “Pc 4 content” value in data set [2] (setting [5]) is given as 109 ± 6.5 Mean fluorescence/cell; in data set [2] (setting [6]), 54 ± 6.9 Mean fluorescence/cell; in data set [3] (setting [7]) it was 136 ± 7.8 Mean fluorescence/cell; in data set [3] (setting [8]) it was 68 ± 8.2 Mean fluorescence/cell. The “Pc 4 content per cell volume” value in data set [2] (setting [5]) stood at 0.50 Mean fluorescence/μm^3; in data set [2] (setting [6]), 0.23 Mean fluorescence/μm^3; in data set [3] (setting [7]), 0.44 Mean fluorescence/μm^3; in data set [3] (setting [8]), 0.22 Mean fluorescence/μm^3. In addition, the “difference in Pc 4 content, pluripotent stem cells vs committed progenitors” value in data set [2] (1.5×10^7 cells/mL (p=0.26)) was “not significant”. Also, the “cell concentration at which uptake reached a plateau” value in data set [3] (15 nM, BM progenitor cells) is given as 8.0×10^5 cells/mL. In data set [3] (1.5×10^7 cells/mL (p=0.07)), the “difference in Pc 4 content, committed progenitors vs ABE-8.1/2” value is recorded as “not quite significant”. Also, the “difference in Pc 4 content, committed progenitors vs BC3A” value in data set [3] (1.5×10^7 cells/mL (p=0.29)) is “not significant”. In addition, the “reduction of Pc 4 uptake” value in data set [3] (BM progenitors, from 8.0×10^5 to 1.5×10^7 cells/mL) is on record as 1.8 fold. Besides, in data set [4] (BM samples, verapamil during incubation), the “effect of verapamil on uptake of Pc 4” value is reported as “did not increase the uptake”. In addition, the “comparison with BPD-DA and benzochlorin” value in data set [4] (application with samples containing mdr^+ leukemic cells) is “compared favorable to BPD-DA”. In addition, the “substrate of the multidrug resistance pump” value in data set [4] (murine pluripotent stem cells) is reported as “not a substrate”. Also, the photoinactivation of viruses entry in the data set on viruses is recorded as “effectively photoinactivate”.
